The values that follow come from patent US7414132B2, “Opioid receptor antagonists” (Eli Lilly and Company, priority 2003, dated 2008).

Format in all cases: biochemical
Assay [1] has as its target mu opioid receptor (MOR) (Homo sapiens, UniProt P35372). Kind of assay: SPA-based GTP-γ-S binding assay, mu opioid receptor. Conditions: membranes, GTP-γ-[35S] SPA; antagonist assay with agonist DAMGO 1 micromolar; read-out: In Vitro Ki Mu. Here is the method:
(§1) An SPA-based GTP-γ-S assay format was developed based on previous opioid (Emmerson et al., J. Pharm Exp Ther 278, 1121, 1996; Horng et al., Society for Neuroscience Abstracts, 434.6, 2000) and muscarinic (DeLapp et al., JPET 289, 946, 1999) assay formats. Membranes were re-suspended in 20 mM HEPES, 100 mM NaCl, 5 mM MgCl2, 1 mM DTT, and 1 mM EDTA. Fifty (50) […] of GTP-γ-[35S], compound, membrane suspension (20 microgram/well), and wheat germ agglutinin coated SPA beads (1 mg/well) were added to clear bottom 96 well assay plates. GDP ([…]) was added to the membrane solution prior to addition to the assay plates. Plates were sealed and incubated for four hours at room temperature then placed in a refrigerator overnight to allow the beads to settle. Signal stability at 4° C. was determined to be >60 hours. Plates were warmed to room temperature and counted in a Wallac Microbeta scintillation counter.
(§2) For antagonist assays, specific agonists were added at the following concentrations: (MOR) DAMGO 1 micromolar, (DOR) DPDPE 30 nM, (KOR) U69593 300 nM. Kb's were determined by Cheng-Prusoff equation (see Cheng and Prusoff, Biochem. Pharmacol. 22, 3099, 1973).
For orientation: GTPγS resists hydrolysis and so accumulates on activated G proteins.

In assay [2] the target is kappa opioid receptor (KOR) (Homo sapiens, UniProt P41145). Kind of assay: SPA-based GTP-γ-S binding assay, kappa opioid receptor. Particulars: membranes, GTP-γ-[35S] SPA; antagonist assay with agonist U69593 300 nM; read-out: In Vitro Ki Kappa. As to the method:
as §1, §2

Assay [3] addresses delta opioid receptor (DOR) (Homo sapiens, UniProt P41143). Briefly: SPA-based GTP-γ-S binding assay, delta opioid receptor. Particulars: membranes, GTP-γ-[35S] SPA; antagonist assay with agonist DPDPE 30 nM; read-out: In Vitro Ki Delta. Here is the method: as §1, §2

Sequence of delta opioid receptor (DOR) (P41143 whole entry): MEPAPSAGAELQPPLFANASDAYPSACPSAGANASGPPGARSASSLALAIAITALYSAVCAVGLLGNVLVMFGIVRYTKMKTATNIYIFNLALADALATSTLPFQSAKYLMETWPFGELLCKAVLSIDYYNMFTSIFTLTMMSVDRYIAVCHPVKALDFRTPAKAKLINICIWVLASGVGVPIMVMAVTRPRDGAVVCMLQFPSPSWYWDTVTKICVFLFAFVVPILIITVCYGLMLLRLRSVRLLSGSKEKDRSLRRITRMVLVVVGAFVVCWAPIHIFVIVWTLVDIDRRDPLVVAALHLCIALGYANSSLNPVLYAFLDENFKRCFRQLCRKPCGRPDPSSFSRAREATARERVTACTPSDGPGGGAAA
Sequence of kappa opioid receptor (KOR) (P41145 whole entry): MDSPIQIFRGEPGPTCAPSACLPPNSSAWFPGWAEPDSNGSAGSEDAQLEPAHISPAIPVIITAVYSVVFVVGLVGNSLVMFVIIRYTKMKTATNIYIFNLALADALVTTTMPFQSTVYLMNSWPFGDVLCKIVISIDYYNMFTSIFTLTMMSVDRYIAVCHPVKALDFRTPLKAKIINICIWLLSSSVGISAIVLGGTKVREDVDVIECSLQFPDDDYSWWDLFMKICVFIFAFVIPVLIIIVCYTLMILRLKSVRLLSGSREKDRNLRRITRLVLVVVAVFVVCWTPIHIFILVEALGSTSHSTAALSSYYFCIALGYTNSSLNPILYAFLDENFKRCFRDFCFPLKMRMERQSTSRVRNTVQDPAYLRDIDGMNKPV
Sequence of mu opioid receptor (MOR) (P35372 whole entry): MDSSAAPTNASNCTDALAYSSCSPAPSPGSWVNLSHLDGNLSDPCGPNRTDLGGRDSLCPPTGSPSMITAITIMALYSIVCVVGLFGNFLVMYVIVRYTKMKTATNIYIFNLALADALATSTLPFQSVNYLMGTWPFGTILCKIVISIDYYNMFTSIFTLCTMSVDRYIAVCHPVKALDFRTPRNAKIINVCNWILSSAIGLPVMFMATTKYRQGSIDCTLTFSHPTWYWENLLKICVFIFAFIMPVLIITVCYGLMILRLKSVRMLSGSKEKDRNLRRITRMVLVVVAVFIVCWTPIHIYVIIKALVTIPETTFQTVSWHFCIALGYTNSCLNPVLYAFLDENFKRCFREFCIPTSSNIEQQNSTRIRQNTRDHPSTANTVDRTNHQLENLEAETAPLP

With `CC(C)CCNCc1ccc(Oc2ccc(/C(N)=N/O)cn2)cc1` [Example 2, N-Hydroxy-6-{4-[(3-methyl-butylamino)-methyl]-phenoxy}-nicotinamidine], the Ki in assay [1] is 43.4 nM; in assay [2], 117 nM; in assay [3], 269 nM.
The corresponding values for `CC(C)CCNCc1ccc(Oc2ccc(C(=N)N)cn2)cc1` [Example 3, 6-{4-[(3-Methyl-butylamino)-methyl]-phenoxy}-nicotinamidine] are 46.1 nM, 134 nM and 485 nM.
The corresponding values for `CC(C)CCNCc1ccc(Oc2ccc(C3=NCCN3)cn2)cc1` [Example 4, {4-[5-(4,5-Dihydro-1H-imidazol-2-yl)-pyridin-2-yloxy]-benzyl}-(3-methyl-butyl)-amine] are 9.5 nM, 34.1 nM and 120 nM.
The corresponding values for `c1csc(CCNCc2ccc(Oc3ccc(C4=NCCN4)cn3)cc2)c1` [Example 5, {4-[5-(4,5-Dihydro-1H-imidazol-2-yl)-pyridin-2-yloxy]-benzyl}-(2-thiophen-2yl-ethyl)amine] are 16.4 nM, 32.8 nM and 370 nM.
For the compound `CC(C)CCNCc1ccc(Oc2ccc(/C(N)=N/C#N)cn2)cc1` [Example 8, N-Cyano-6-{4-[(3-methyl-butylamino)-methyl]-phenoxy}-nicotinamidine], the Ki in assay [1] was determined as 7.83 nM; in assay [2], 43.2 nM; in assay [3], 178 nM.
The corresponding values for `CC(C)CCNCc1ccc(Oc2ccc(-c3ncc[nH]3)cn2)cc1` [Example 10, {4-[5-(1H-Imidazol-2-yl)-pyridin-2-yloxy]-benzyl}-(3-methyl-butyl)-amine] are 5.77 nM, 40.1 nM and 214 nM.
In the same order, the values of `CC(C)CCNCc1ccc(Oc2ccc3c(N)noc3c2)cc1` [Example 11, 6-{4-[(3-Methyl-butylamino)-methyl]-phenoxy}-benzo[d]isoxazol-3-ylamine] are 5.81 nM, 47.5 nM and 81.1 nM.
